Key:
Assay in all cases: biochemical
Parameters in all cases: KINOMEscan competition binding panel (Eurofins DiscoverX), single concentration, percent inhibition
Settings in all cases: read-out: 15 at 1 µM % inhibition
BRAF(V600E) = BRAF(V600E) (Homo sapiens, UniProt P15056, V600E)
Method in brief: (§1)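 Values come from single-concentration (1 µM) profiling in the Eurofins DiscoverX KINOMEscan competition-binding platform, which covers over 400 kinases.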

CAMK1D = CAMK1D (Homo sapiens, UniProt Q8IU85)
Method in brief: as §1

CDKL2 = CDKL2 (Homo sapiens, UniProt Q92772)
CDKL2, sequence (Q92772 whole entry): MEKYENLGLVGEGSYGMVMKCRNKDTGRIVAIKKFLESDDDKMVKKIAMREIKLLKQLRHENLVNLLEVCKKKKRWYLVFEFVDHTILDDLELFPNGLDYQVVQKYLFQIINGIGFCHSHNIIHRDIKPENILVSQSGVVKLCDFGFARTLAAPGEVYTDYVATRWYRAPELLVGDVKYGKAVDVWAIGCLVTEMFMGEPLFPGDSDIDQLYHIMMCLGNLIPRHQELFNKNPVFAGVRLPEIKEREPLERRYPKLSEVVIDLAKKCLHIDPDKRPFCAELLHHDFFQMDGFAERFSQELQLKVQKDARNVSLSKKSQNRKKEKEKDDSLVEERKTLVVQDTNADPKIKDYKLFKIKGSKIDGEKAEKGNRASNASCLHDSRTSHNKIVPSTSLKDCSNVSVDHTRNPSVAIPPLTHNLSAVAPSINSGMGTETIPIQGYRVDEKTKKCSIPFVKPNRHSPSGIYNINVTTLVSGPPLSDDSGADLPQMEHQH
Method in brief: as §1

DMPK = DMPK (Homo sapiens, UniProt Q09013)
Method in brief: as §1

EPHA4 = EPHA4 (Homo sapiens, UniProt P54764)
EPHA4, sequence (P54764 whole entry): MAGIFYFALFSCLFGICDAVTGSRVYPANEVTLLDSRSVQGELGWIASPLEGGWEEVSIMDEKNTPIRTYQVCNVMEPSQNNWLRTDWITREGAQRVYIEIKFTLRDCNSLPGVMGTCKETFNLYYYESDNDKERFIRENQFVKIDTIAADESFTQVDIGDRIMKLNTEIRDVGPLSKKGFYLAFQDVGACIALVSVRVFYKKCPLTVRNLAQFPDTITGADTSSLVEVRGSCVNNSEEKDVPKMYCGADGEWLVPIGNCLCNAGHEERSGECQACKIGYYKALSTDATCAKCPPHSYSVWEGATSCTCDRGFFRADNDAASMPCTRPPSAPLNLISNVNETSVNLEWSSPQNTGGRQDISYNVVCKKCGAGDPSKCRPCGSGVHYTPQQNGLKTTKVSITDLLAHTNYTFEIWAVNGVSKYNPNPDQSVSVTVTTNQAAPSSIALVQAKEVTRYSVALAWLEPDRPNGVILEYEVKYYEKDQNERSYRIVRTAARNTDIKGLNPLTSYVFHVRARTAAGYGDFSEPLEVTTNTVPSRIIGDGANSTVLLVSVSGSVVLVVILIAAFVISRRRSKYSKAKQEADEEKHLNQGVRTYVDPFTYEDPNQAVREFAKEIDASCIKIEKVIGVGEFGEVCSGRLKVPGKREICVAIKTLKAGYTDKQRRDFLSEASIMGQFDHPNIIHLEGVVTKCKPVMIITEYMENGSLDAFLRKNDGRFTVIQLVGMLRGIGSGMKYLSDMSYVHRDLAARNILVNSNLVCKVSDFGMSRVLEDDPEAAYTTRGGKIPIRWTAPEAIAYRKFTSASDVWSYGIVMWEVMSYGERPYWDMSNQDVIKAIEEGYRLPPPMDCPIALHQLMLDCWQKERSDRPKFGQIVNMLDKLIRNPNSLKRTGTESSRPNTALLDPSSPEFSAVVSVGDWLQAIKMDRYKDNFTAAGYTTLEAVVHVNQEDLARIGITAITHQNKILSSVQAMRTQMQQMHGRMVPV
Method in brief: as §1

ERK2 = target: T1, ERK2 (Homo sapiens, UniProt P28482)
T1 construct: gene MAPK1
Method in brief: as §1

FLT3(D835V) = FLT3(D835V) (Homo sapiens, UniProt P36888, D835V)
Method in brief: as §1

HCK = HCK (Homo sapiens, UniProt P08631)
Method in brief: as §1

[1] = target: T2, JAK1(JH1domain-catalytic) (Homo sapiens, UniProt P23458)
T2 construct: JH1domain-catalytic
Method in brief: as §1

KIT(L576P) = KIT(L576P) (Homo sapiens, UniProt P10721, L576P)
KIT(L576P), sequence (P10721 whole entry L576P): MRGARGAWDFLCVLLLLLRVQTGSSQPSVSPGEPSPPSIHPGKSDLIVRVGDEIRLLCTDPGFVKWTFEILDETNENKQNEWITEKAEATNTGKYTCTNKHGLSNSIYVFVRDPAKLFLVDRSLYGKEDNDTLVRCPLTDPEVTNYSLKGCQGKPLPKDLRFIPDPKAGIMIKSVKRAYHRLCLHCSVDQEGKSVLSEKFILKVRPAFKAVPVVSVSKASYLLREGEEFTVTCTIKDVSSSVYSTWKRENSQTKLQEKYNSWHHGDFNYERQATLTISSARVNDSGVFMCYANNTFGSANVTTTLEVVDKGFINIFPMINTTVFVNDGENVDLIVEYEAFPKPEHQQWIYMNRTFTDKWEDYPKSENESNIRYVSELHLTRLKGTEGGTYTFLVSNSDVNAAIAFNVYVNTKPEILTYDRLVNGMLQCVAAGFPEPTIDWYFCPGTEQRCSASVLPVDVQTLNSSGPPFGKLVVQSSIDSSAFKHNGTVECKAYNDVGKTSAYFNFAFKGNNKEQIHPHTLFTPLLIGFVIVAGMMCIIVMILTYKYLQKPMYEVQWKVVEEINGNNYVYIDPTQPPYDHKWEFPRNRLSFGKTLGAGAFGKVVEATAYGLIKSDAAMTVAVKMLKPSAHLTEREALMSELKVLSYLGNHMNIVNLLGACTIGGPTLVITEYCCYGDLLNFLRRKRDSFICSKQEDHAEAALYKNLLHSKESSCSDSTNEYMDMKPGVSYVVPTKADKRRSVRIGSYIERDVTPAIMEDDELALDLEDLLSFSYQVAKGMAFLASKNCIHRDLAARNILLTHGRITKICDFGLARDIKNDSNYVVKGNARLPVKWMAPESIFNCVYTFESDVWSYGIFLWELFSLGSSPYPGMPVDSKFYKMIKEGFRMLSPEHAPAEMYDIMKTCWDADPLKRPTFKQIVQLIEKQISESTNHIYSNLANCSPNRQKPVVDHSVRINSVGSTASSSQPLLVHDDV
Method in brief: as §1

KIT(V559D,T670I) = KIT(V559D,T670I) (Homo sapiens, UniProt P10721, T670I/V559D)
KIT(V559D,T670I), sequence (P10721 whole entry V559D/T670I): as the sequence (P10721 whole entry L576P) above, with V559D, P576L, T670I counted along it
Method in brief: as §1

KIT-autoinhibited = KIT-autoinhibited (Homo sapiens, UniProt P10721)
KIT-autoinhibited, sequence (P10721 whole entry): as the sequence (P10721 whole entry L576P) above, with P576L counted along it
Method in brief: as §1

MARK3 = MARK3 (Homo sapiens, UniProt P27448)
Method in brief: as §1

MLCK = target: T3, MLCK (Homo sapiens, UniProt Q32MK0)
T3 construct: gene MYLK3
Method in brief: as §1

PIK3CA(E545A) = PIK3CA(E545A) (Homo sapiens, UniProt P42336, E545A)
Method in brief: as §1

PIK3CA(Q546K) = PIK3CA(Q546K) (Homo sapiens, UniProt P42336, Q546K)
Method in brief: as §1

PIK3CD = PIK3CD (Homo sapiens, UniProt O00329)
PIK3CD, sequence (O00329 whole entry): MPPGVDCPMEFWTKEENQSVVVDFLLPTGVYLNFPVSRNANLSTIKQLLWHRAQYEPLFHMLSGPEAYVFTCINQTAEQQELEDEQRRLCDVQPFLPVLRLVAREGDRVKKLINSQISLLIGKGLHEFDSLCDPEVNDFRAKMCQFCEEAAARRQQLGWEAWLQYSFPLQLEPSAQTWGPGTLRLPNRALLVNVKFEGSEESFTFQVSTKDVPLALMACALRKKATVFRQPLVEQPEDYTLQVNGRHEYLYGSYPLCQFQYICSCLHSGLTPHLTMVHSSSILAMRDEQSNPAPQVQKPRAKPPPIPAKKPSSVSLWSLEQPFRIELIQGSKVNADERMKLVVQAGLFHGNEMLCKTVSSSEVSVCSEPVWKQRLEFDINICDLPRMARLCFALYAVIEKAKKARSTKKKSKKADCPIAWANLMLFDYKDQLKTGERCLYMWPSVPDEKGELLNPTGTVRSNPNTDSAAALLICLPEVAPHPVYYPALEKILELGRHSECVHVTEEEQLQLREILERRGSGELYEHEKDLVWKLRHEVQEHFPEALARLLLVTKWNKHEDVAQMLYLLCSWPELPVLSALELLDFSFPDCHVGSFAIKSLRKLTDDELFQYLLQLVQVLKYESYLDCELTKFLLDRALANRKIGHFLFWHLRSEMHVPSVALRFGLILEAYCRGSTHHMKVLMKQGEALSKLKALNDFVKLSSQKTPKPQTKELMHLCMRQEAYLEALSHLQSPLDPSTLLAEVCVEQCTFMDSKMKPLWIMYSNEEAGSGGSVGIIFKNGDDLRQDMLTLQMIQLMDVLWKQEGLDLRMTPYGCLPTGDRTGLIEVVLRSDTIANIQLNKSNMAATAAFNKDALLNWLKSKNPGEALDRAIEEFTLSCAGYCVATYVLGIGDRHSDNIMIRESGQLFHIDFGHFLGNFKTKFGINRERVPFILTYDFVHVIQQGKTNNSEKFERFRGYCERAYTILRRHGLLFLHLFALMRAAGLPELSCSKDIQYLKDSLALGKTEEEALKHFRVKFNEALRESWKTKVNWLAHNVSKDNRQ
Method in brief: as §1

PRKD3 = PRKD3 (Homo sapiens, UniProt O94806)
Method in brief: as §1

ROS1 = ROS1 (Homo sapiens, UniProt P08922)
Method in brief: as §1

[2] = target: T4, RSK2(Kin.Dom.1-N-terminal) (Homo sapiens, UniProt P51812)
T4 construct: gene RPS6KA3; Kin.Dom.1-N-terminal
Method in brief: as §1

[3] = target: T5, RSK4(Kin.Dom.1-N-terminal) (Homo sapiens, UniProt Q9UK32)
T5 construct: gene RPS6KA6; Kin.Dom.1-N-terminal
T5 sequence (Q9UK32 whole entry): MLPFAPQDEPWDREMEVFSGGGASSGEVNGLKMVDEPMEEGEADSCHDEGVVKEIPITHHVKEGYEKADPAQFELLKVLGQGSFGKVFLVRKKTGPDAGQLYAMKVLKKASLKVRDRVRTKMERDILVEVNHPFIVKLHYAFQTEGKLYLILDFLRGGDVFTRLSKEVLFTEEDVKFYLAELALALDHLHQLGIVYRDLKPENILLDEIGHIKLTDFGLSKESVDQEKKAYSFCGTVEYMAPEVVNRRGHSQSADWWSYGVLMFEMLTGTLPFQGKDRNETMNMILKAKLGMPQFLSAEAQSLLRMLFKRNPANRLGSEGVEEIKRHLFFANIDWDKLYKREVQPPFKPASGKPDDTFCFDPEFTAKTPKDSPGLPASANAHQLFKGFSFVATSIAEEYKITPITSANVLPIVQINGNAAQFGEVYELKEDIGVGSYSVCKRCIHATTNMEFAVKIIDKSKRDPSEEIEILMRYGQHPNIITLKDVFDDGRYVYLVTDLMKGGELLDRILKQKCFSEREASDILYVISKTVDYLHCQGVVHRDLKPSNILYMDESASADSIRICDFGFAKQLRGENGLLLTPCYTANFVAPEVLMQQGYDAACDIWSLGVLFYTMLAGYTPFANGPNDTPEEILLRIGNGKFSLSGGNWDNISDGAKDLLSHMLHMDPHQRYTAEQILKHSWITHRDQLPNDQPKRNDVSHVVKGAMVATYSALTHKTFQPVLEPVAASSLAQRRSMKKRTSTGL
Method in brief: as §1

SRPK3 = SRPK3 (Homo sapiens, UniProt Q9UPE1)
SRPK3, sequence (Q9UPE1 whole entry): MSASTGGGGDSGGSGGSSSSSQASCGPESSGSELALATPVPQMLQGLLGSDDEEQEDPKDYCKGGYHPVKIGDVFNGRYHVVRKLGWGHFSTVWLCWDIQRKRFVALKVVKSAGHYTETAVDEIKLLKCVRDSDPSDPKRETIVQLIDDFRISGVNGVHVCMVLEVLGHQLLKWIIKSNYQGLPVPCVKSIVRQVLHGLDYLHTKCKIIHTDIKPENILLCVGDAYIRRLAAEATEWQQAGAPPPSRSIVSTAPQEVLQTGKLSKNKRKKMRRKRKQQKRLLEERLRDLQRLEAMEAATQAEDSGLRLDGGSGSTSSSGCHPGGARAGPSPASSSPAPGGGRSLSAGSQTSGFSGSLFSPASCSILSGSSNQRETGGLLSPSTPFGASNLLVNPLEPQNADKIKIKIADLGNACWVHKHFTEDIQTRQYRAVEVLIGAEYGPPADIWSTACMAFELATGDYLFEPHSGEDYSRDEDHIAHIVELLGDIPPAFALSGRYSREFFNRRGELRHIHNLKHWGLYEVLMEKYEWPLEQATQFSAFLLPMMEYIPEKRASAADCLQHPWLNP
Method in brief: as §1

TGFBR2 = TGFBR2 (Homo sapiens, UniProt P37173)
Method in brief: as §1

SMILES: CNS(=O)(=O)c1ccc(N(C)C)c(Nc2nc(C)nc3cc(OC)c(OC)cc23)c1 [compound 15, 3-((6,7-dimethoxy-2-methylquinazolin-4-yl)amino)-4-(dimethylamino)-N-methylbenzenesulfonamide]
- inhibition at 1 µM (BRAF(V600E)): 24%
- inhibition at 1 µM (CAMK1D): 0%
- inhibition at 1 µM (CDKL2): 4%
- inhibition at 1 µM (DMPK): 3%
- inhibition at 1 µM (EPHA4): 0%
- inhibition at 1 µM (ERK2): 0%
- inhibition at 1 µM (FLT3(D835V)): 37%
- inhibition at 1 µM (HCK): 4%
- inhibition at 1 µM [1]: 0%
- inhibition at 1 µM (KIT(L576P)): 0%
- inhibition at 1 µM (KIT(V559D,T670I)): 0%
- inhibition at 1 µM (KIT-autoinhibited): 19%
- inhibition at 1 µM (MARK3): 0%
- inhibition at 1 µM (MLCK): 4%
- inhibition at 1 µM (PIK3CA(E545A)): 1%
- inhibition at 1 µM (PIK3CA(Q546K)): 37%
- inhibition at 1 µM (PIK3CD): 37%
- inhibition at 1 µM (PRKD3): 0%
- inhibition at 1 µM (ROS1): 0%
- inhibition at 1 µM [2]: 15%
- inhibition at 1 µM [3]: 30%
- inhibition at 1 µM (SRPK3): 1%
- inhibition at 1 µM (TGFBR2): 8%
